Consider eleven molecules from ChEMBL document CHEMBL1201862, “PubChem BioAssay data set” (2004).

Common to all, as to test: growth of human tumour cells (NCI), 48 h
For test [1], the system named is IGROV-1.
Test [2] relates to CCRF-CEM.
Test [3] relates to HCT-15.
The subject of test [4] is DU-145.
Test [5] relates to MDA-N.
Test [6] concerns A549.
Test [7] relates to HOP-62.
Test [8] concerns MCF7.
Test [9] concerns OVCAR-3.
The subject of test [10] is K562.
The subject of test [11] is NCI-H23.
The subject of test [12] is EKVX.
Test [13] concerns SNB-19.
Test [14] relates to SK-MEL-28.
The subject of test [15] is MDA-MB-231.
Test [16] deals with ACHN.
For test [17], the system named is Malme-3M.
Test [18] deals with NCI-H226.
Test [19] has as its system A498.
Test [20] has as its system CAKI-1.

Molecules are shown by their SMILES.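 Where inhibition never reached the appropriate level, the endpoint shown equals the highest concentration tested. Otherwise, values were interpolated linearly from a five-concentration, 48-hour dose response in 96-well plates. GI50: concentration for 50% inhibition of growth.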 Activity calls are given as the source filed them. Cut-off read from the data, not from the text of the source: active = GI50 up to about 1.1 µM and inactive = higher.

In the case of `SC[C@@H]1COC[C@H](CS)S1`, the GI50 is > 100 µM (inactive) in test [1]; > 100 µM (inactive) in test [2]; over 100 µM in test [3]; > 100 µM (inactive) in [4]; > 100 µM (inactive) in test [5]; > 100 µM (inactive) in test [6]. Further, the GI50 in test [7], in test [8], in test [9], in [10], in test [11] and in [12] was > 100 µM (inactive) throughout. For the same molecule, the GI50 in test [13], in [14] and in test [15] was > 100 µM (inactive) throughout.

For the molecule `COC(=O)c1csc(-c2csc(CCNC(=O)OC(C)(C)C)n2)n1`, the GI50 in test [1] was > 100 µM (inactive); in [2], 43.5 µM (inactive); in test [3], over 100 µM; in test [4] it was > 100 µM (inactive); in test [5], > 100 µM (inactive); in test [6] it was > 100 µM (inactive). The GI50 in test [7], in [8], in [9], in test [10], in test [16] and in [11] was > 100 µM (inactive) each time. Moreover, the GI50 in test [12] is > 100 µM (inactive); in test [17] it was > 100 µM (inactive); in test [13] it was > 100 µM (inactive); in test [14], > 100 µM (inactive); in test [18], > 100 µM (inactive); in test [19], 26.1 µM (inactive).

Take `Brc1cccc(Nc2nc(-c3cccs3)nc3ccc(Br)cc23)c1`: the GI50 is 26.7 µM (inactive) in [1]; 1.51 µM (inactive) in [2]; 26.5 µM in [3]; 36.1 µM (inactive) in test [4]; 29.5 µM (inactive) in test [6]; 32.1 µM (inactive) in [7]. In addition, the GI50 is 14.2 µM (inactive) in test [8]; 16.1 µM (inactive) in test [9]; 38.2 µM (inactive) in [10]; 27.7 µM (inactive) in test [16]; 36.9 µM (inactive) in test [11]; 15 µM (inactive) in test [12]. Further, the GI50 in [17] was 25.4 µM (inactive); in [20], 23.1 µM (inactive); in test [13], 31.1 µM (inactive); in test [14] it was 25.2 µM (inactive); in test [18], 31.4 µM (inactive); in test [19], 31.7 µM (inactive). In test [15], the GI50 is 20.7 µM (inactive).

In the case of `O=C1/C(=C\c2ccc(Cl)cc2)N=C(c2ccccc2)N1n1c(=O)cn[nH]c1=S`, the GI50 in [1] was 18.5 µM (inactive); in [2], 2.56 µM (inactive); in test [3] it was 21.5 µM; in test [4], 19.8 µM (inactive); in test [5], 52.6 µM (inactive); in test [6], > 100 µM (inactive). Moreover, the GI50 in [7] is 52.2 µM (inactive); in test [8], 18.4 µM (inactive); in [9] it was 27.4 µM (inactive); in [10] it was 16.9 µM (inactive); in [16], > 100 µM (inactive); in test [11], 20.3 µM (inactive). Moreover, the GI50 in [12] is > 100 µM (inactive); in [17], > 100 µM (inactive); in test [20], 40.2 µM (inactive); in test [13], 54.3 µM (inactive); in [14], > 100 µM (inactive); in test [19] it was > 100 µM (inactive).

For the molecule `N=C(N)NCCN1CCCCCc2ccccc21`, the GI50 in [1] is > 10 µM (inactive); in [2] it was > 10 µM (inactive); in [3], over 10 µM; in test [4] it was > 10 µM (inactive); in test [6] it was > 10 µM (inactive); in test [7], > 10 µM (inactive). The GI50 in test [8], in test [9], in test [10], in test [16], in test [11] and in test [12] was > 10 µM (inactive) each time. The GI50 in test [17], in test [20], in test [13], in test [14], in test [18] and in test [19] was > 10 µM (inactive) throughout. The GI50 in [15] is > 10 µM (inactive).

As for `N#Cc1c2ccc([N+](=O)[O-])cc2c(=O)n2c1sc1ccccc12`, the GI50 in [2] is 7.29 µM (inactive); in test [3], 22.2 µM; in test [4], 35.5 µM (inactive); in test [5], 80.2 µM (inactive); in [6], 12.2 µM (inactive); in test [10], 11.1 µM (inactive). Moreover, the GI50 is 32.4 µM (inactive) in test [16]; 15.2 µM (inactive) in [11]; 24.4 µM (inactive) in test [20]; 10.5 µM (inactive) in test [13]; 17.6 µM (inactive) in test [14]; 17 µM (inactive) in [18]. In addition, the GI50 in test [19] is 13.5 µM (inactive); in test [15] it was 17.2 µM (inactive).

For `O=C(Sc1c(-c2ccccc2)c(=O)n(-c2ccccc2)c(=S)n1-c1ccccc1)c1ccccc1`, the GI50 in [1] is > 100 µM (inactive); in test [2], 15.8 µM (inactive); in test [3] it was 60.7 µM; in test [4] it was > 100 µM (inactive); in test [5], 84.5 µM (inactive); in test [6] it was > 100 µM (inactive). Also, the GI50 in test [7] is > 100 µM (inactive); in [8] it was 51.6 µM (inactive); in [9] it was > 100 µM (inactive); in test [10], 29 µM (inactive); in test [16], > 100 µM (inactive); in test [11], > 100 µM (inactive). The GI50 in test [12], in test [17], in test [20], in [13], in test [14] and in test [18] was > 100 µM (inactive) each time.

Take `COc1cc(S(=O)(=O)Nc2ccc(-c3csc(N4C(=O)CSC4c4ccccc4)n3)cc2)ccc1Cl` (stereo unspecified): the GI50 in [1] is 51.4 µM (inactive); in [2], 34.2 µM (inactive); in [3] it was over 100 µM; in test [4], > 100 µM (inactive); in test [5], 39.9 µM (inactive); in test [6] it was 0.785 µM (active). Moreover, the GI50 in [7] was 81.8 µM (inactive); in test [8] it was 22.6 µM (inactive); in test [9] it was > 100 µM (inactive); in test [10] it was 39.7 µM (inactive); in test [16], 15.2 µM (inactive); in [11], > 100 µM (inactive). The GI50 is 20.6 µM (inactive) in [12]; > 100 µM (inactive) in [17]; > 100 µM (inactive) in [20]; 13.7 µM (inactive) in test [13]; 22.9 µM (inactive) in [14]; 94.4 µM (inactive) in [18]. Moreover, the GI50 in test [19] was 0.116 µM (active).

In the case of `COC(=O)c1cc(C)ccc1/C=C1\Cc2cc(C)c(C)cc2C1=O`, the GI50 was > 100 µM (inactive) in test [1]; 0.108 µM (active) in test [2]; over 100 µM in [3]; > 100 µM (inactive) in test [4]; > 100 µM (inactive) in test [5]; > 100 µM (inactive) in test [6]. The GI50 in test [7] is 39 µM (inactive); in test [9], 51.1 µM (inactive); in test [10], 89.3 µM (inactive); in [16] it was > 100 µM (inactive); in test [11] it was > 100 µM (inactive); in test [12], > 100 µM (inactive). Besides, the GI50 is > 100 µM (inactive) in test [17]; > 100 µM (inactive) in test [20]; 29.9 µM (inactive) in test [13]; > 100 µM (inactive) in test [14]; > 100 µM (inactive) in test [18]; 68.9 µM (inactive) in [19]. In addition, in test [15], the GI50 was > 100 µM (inactive).

For `C=C1CC[C@H]2C(=O)OC(c3ccoc3)C[C@]2(C)C/C=C\C=C/1C(=O)OC` (stereo partly specified), the GI50 in [1] was > 25 µM (inactive); in test [3], over 25 µM; in test [5] it was > 25 µM (inactive); in [6] it was > 25 µM (inactive); in test [7], > 25 µM (inactive); in [8] it was > 25 µM (inactive). The GI50 in [9] was 13.9 µM (inactive); in [10] it was > 25 µM (inactive); in test [16] it was > 25 µM (inactive); in test [11], 11.4 µM (inactive); in test [12], > 25 µM (inactive); in [17] it was > 25 µM (inactive). Besides, the GI50 in test [20], in [13], in test [14], in [18], in test [19] and in test [15] was > 25 µM (inactive) each time.

Take `Cc1cccc2c1Oc1ccccc1C2NC(=O)c1ccc([N+](=O)[O-])cc1` (stereo unspecified): the GI50 in [1] is > 100 µM (inactive); in test [2], > 100 µM (inactive); in [3], over 100 µM; in test [4], 21 µM (inactive); in [5], > 100 µM (inactive); in test [6], > 100 µM (inactive). Further, the GI50 was 28.8 µM (inactive) in test [7]; 99.3 µM (inactive) in test [9]; > 100 µM (inactive) in test [10]; > 100 µM (inactive) in [16]; > 100 µM (inactive) in test [11]; > 100 µM (inactive) in test [12]. Further, the GI50 is 86.7 µM (inactive) in test [17]; 69 µM (inactive) in test [20]; > 100 µM (inactive) in [13]; > 100 µM (inactive) in test [14]; 15.6 µM (inactive) in test [18]; 76.4 µM (inactive) in test [19]. For the same molecule, in [15], the GI50 is 66.1 µM (inactive).
